“And” between values parts separate entries of the source, which are not always exact repeats. Equal values may be shown once.
What was measured:
[1] = tested on: 28 target genes (defense genes) in apple tree leaves; assay: Test 1: relative expression of the 28 defense genes (qPCR, ΔΔCt) in apple tree seedling leaves subjected to NDS treatments and abiotic stresses; format: in vivo, apple tree seedlings (Golden Delicious)
[2] = tested on: fire blight (Erwinia amylovora); details: Test 1, controlled conditions
[3] = +H2O2, J2, relative to water control
[4] = +H2O2, J3, relative to water control
[5] = vs water control, +H2O2 (sprayed 24 hours after treatment), J2
[6] = vs water control, +H2O2 (sprayed 24 hours after treatment), J3
[7] = −H2O2, J2, relative to water control
[8] = −H2O2, J3, relative to water control

## CC(N)CC(=O)O (racemic) [Baba, DL-β-amino-n-butyric acid]
[1]; [3]
  Relative expression APOX (log base 2): 1.49 and 1.76
  Relative expression JAR (log base 2): −0.44 and −0.16
  Relative expression POX (log base 2): 2.20 and 2.28
[1]; [4]
  Relative expression CAD (log base 2): −0.15 and −0.29
  Relative expression CalS (log base 2): 2.10 and 1.88
[1]; H2O2 sprayed 24 hours after treatment
  direct stimulator versus potentiator: gene expression after additional H2O2 treatment: triggers the expression of some genes (POX, Pect, for example)
[1]; Test 1
  effect on the modulation of target gene expression (in words): little effect on the modulations of genes
[1]; [5]
  Relative expression of ANS: 1.41 log2 and 2.12 log2
  Relative expression of PAL: 0.29 log2 and 0.55 log2
  Relative expression of PR-15: 0.84 log2 and 0.71 log2
[1]; [6]
  Relative expression of PR-1: 2.71 log2 and 1.77 log2
  Relative expression of PR-5: 1.91 log2 and 1.34 log2
  Relative expression of PR-15: 1.46 log2 and 2.06 log2
[1]; vs water control, −H2O2, J2
  Relative expression of ANS: 1.28 log2 and 1.53 log2
  Relative expression of PAL: 0.42 log2 and 0.27 log2
[1]; vs water control, −H2O2, J3
  Relative expression of PAL: 0.20 log2 and 0.29 log2
[1]; [7]
  Relative expression CHS (log base 2): 0.27 and 0.29
  Relative expression DFR (log base 2): 0.64 and 0.93
  Relative expression GST (log base 2): −0.05 and −0.34
[1]; [8]
  Relative expression CHS (log base 2): 0.19 and 0.31
  Relative expression FPPS (log base 2): 0.46 and 0.56
[2]
  protection against fire blight: no protective effect against fire blight
